Series [1] concerns Mdr2^−/− mice. Put plainly: First study: dietary supplementation of Mdr2−/− mice (mouse model of human PSC and PFIC) for 17 weeks. The note with it: mono-treatment, 0.03% OCA or 1% THBA (w/w) in diet, from 3 to 20 weeks of age, female mice.
In series [2] the test system is Mdr2^−/− mice. The note with it: mouse, in vivo.

Read-outs that look alike come from different tables or passages of the source.

Take `C[C@H](CCC(=O)O)[C@H]1CC[C@H]2[C@@H]3[C@H](O)[C@H](O)[C@@H]4C[C@H](O)CC[C@]4(C)[C@H]3C[C@H](O)[C@]12C` [THBA, 3α, 6α, 7α, 12α-tetrahydroxy-5β-cholan-24-oic acid]: the “liver indicator profiles (bilirubin, ALT, ALP, total bile acids in plasma)” value with Mdr2^−/− mice [1] was “significantly improved liver indicator profiles”. Besides, the adverse effects result in the series with Mdr2^−/− mice [2] is listed as “no significant, obvious, adverse effects”.
Regarding `CC[C@H]1[C@@H](O)[C@@H]2[C@H](CC[C@]3(C)[C@@H]([C@H](C)CCC(=O)O)CC[C@@H]23)[C@@]2(C)CC[C@@H](O)C[C@@H]12` [OCA, Obeticholic acid, reference compound], in the series on Mdr2^−/− mice [1], the adverse effects result was “no significant, obvious, adverse effects”.

Values taken from US20220227804A1, “COMBINATION OF A POLYHYDROXYLATED BILE ACID AND A FARNESOID X RECEPTOR AGONIST” (QING BILE THERAPEUTICS INC., priority 2019, published 2022).
